Source: US20080262080A1, “Allergy Suppressive Agent” (KYUSHU UNIVERSITY, NATIONAL UNIVERSITY CORPORATION, priority 2004, published 2008)

Tests used:
FcεRI α- and γ-chains = test: Expression levels of the proteins constituting FcεRI (α- and γ-chains) in KU812 cells, immunoprecipitation and blotting; assay type: cell-based, human; conditions: serum-free, 6 hours, β-actin control
Description: The expression of each of the FcεRI α- and γ-chains was detected by collecting cells having been incubated by adding chrysin, lysing the cells, conducting immunoprecipitation, subjecting the immunoprecipitate to DS-PAGE and then blotting. β-Actin was employed as a control.
KU812 cells (1×10^6 cells/mL) were incubated under serum-free conditions in RPMI 1640 medium, to which chrysin had been added, for 6 hours. After incubating, the cells were washed with PBS once and then lysed by shaking together with Lysis buffer (composition: 50 mM Tris-HCl pH 7.5, 1% Triton X-100, 150 mM NACl, 1 mM EDTA, 50 mM NaF, 30 mM Na4P2O7, 1 mM PMSF, 2 μg/mL aprotinin, 1 mM pervandate) at 4° C. for 30 min. Subsequently, the mixture was centrifuged at 12,000×g for 10 min at 4° C. to precipitate insoluble matters. The supernatant was collected and proteins were quantified. The samples were diluted with Lysis buffer so that all of them had the same protein concentration, thereby giving lysate samples.
Protein A Sepharose beads (Amersham Pharmacia Biotech) were shaken in Lysis buffer (composition: 50 mM Tris-HCl pH 7.5, 150 mM NACl, 1% Triton X-100, 1 mM EDTA, 50 mM NaF, 30 mM Na4P2O7, 1 mM PMSF, 2 μg/mL aprotinin), to which CRA-1 antibody had been added to give a final concentration of 1 μg/mL, for 2 to 4 hours at 4° C. so as to allow the beads to adsorb CRA-1 antibody. […]

KU812 cells = test: A23187-induced histamine release from human basophil cell line KU812; assay type: cell-based; conditions: 25 μM of chrysin, 5 μM A23187, vs control free from chrysin
Description: Human basophil cell line KU812 cells (5×10^6 cells/mL) were incubated in Tyrode buffer comprising 1 mM of CaCl2, to which 25 μM of chrysin had been added, and then stimulated with A23187. Histamine released from the cells and histamine cumulated in the cells were quantified to thereby determine the histamine release rate. Comparison was made with a control system free from chrysin.
Human basophil cell line KU812 cells (5×10^5 cells/mL) were incubated in Tyrode buffer (137 mM NaCl, 2.7 mM KCl, 1.8 mM CaCl2, 1.1 mM MgCl2, 1.19 mM NaHCO3, 0.4 mM NaH2PO4, pH 7.4) comprising 25 μM of chrysin and 1 mM of CaCl2 for 20 min at 37° C. After adding 5 μM of A23187 (Sigma Chemical Co.), the incubation was continued for an additional 20 min at 37° C. […] In a sample for quantifying histamine cumulated in cells, the cells were centrifuged at 300×g for 5 min, ultrasonically disrupted for about 1 min and then centrifuged at 12,000×g for 5 min and 1 mL of the supernatant was collected. To perform fluorescence measurement under alkaline conditions, a complex of histamine and o-phthaldehyde (Wako) was formed and partly extracted. […] The fluorescent intensity was measured using a fluorophotometer RF-1500 at an excitation wavelength of 360 nm and a fluorescent wavelength of 450 nm.

STAT6 = test: Detection of phosphorylated STAT6 in IL-4-treated DND39 cells; assay type: cell-based, human; conditions: IL-4 (100 U/ml), chrysin at various concentrations, 30 min
Description: DND39 cells were treated with IL-4 (100 U/ml) and chrysin at various concentrations and then lysed. Each cell lysate was subjected to immunoprecipitation using anti-STAT6 antibody. The immunoprecipitate was subjected to 8% SDS-PAGE and transferred onto a nitrocellulose membrane and phosphorylated STAT6 was detected. The density of DND39 cells was adjusted to 2×10^6 cells/mL and IL-4 (100 U/mL) and chrysin at each concentration were added thereto. Then, the cells were lysed by treating for 30 min. The cell lysate was subjected to immunoprecipitation using anti-STAT6 antibody. The immunoprecipitate was subjected to 8% SDS-PAGE and blotted onto a nitrocellulose membrane. Then phosphorylated STAT6 was detected using anti-tyrosine phosphorylation antibody (PY20).

With `O=c1cc(-c2ccccc2)oc2cc(O)cc(O)c12` [Chrysin, 5,7-dihydroxyflavone] the “expression of the proteins constituting FcεRI (α- and γ-chains)” value (FcεRI α- and γ-chains) was “suppressive effect”, the “histamine release induced by A23187” value (KU812 cells) was “significantly lowered” and the “phosphorylation of STAT6” value (STAT6) was “suppressed”.
